The text below walks through data of ChEMBL document CHEMBL4699551, “Bromotryptamine and Imidazole Alkaloids with Anti-inflammatory Activity from the Bryozoan Flustra foliacea” (J Nat Prod, 2020).

Activity calls are given as the source filed them. The rule behind the calls is not given here.

In general, IC50 refers to the point on the concentration scale where inhibition reaches its midpoint.

In data set [1] the test system is Dendritic cell. Briefly: Antiinflammatory activity in human monocytes-derived dendritic cells assessed as decrease in IL-12p40 secretion at 10 ug/ml after 24 hrs by ELISA method relative to control. The format is functional.
For data set [2], the system named is Dendritic cell. Briefly: Antiinflammatory activity in human monocytes-derived dendritic cells assessed as increase in IL-10 secretion at 10 ug/ml after 24 hrs by ELISA method relative to control. The format is functional.
Data set [3] relates to Dendritic cell. The experiment in a line: Cytotoxicity against human monocytes-derived dendritic cells assessed as reduction in cell viability after 10 ug/ml after 24 hrs by trypan blue staining based assay. Conditions: dose 10 µg/ml.
Data set [4] relates to Dendritic cell. Briefly: Antiinflammatory activity in human monocytes-derived dendritic cells assessed as decrease in IL-12p40 secretion after 24 hrs by ELISA method relative to control. The format is functional, cell-based. On the technique in general: In an ELISA, binding on a coated surface is turned into a signal by an enzyme label.

For the compound `CC(C)=CCN1c2cc(Br)ccc2[C@]2(CC=C(C)C)CCN(C)[C@H]12`, the outcome in the data set with Dendritic cell [1] (dose 10.0 µg/ml) and with Dendritic cell [2] (dose 10.0 µg/ml) was inactive.
With `C=CC(C)(C)[C@@]12CCN(C)[C@@H]1N(CC(O)C(C)(C)O)c1cc(Br)ccc12` (some centres not stated), the result in the data set with Dendritic cell [1] (dose 10.0 µg/ml) and in the data set with Dendritic cell [2] (dose 10.0 µg/ml) was inactive.
In the case of `C=CC(C)(C)C(=O)Nc1cc(Br)ccc1C(=O)O`, the figures for the Activity with Dendritic cell [1] (dose 10 µg/ml) and in the data set with Dendritic cell [3] were 45% and “Non-Toxic”, respectively.
Take `CNCC[C@]1(O)C(=O)N(CC=C(C)C)c2cc(Br)ccc21`: the outcome in the data set on Dendritic cell [1] (dose 10.0 µg/ml) and in the data set with Dendritic cell [2] (dose 10.0 µg/ml) was inactive.
`C=CC(C)(C)c1c(CCNC)c2ccc(Br)cc2n1C.O=C(O)C(F)(F)F`: the figures for the Activity in the data set with Dendritic cell [1] (dose 10 µg/ml) and in the data set with Dendritic cell [3] were 45% and “Non-Toxic”, respectively.
`C=CC(C)(C)c1[nH]c2cc(Br)ccc2c1CC[N+]1(C)CCOC1` (configuration not stated): the values for the Activity with Dendritic cell [1] (dose 10 µg/ml) and in the data set with Dendritic cell [3] were 45% and “Non-Toxic”, respectively.
On to `CC(C)=CC[C@@]12CCN(C)[C@@H]1Nc1c(Br)ccc(O)c12`, for which the outcome in the data set with Dendritic cell [1] (dose 10.0 µg/ml) and in the data set with Dendritic cell [2] (dose 10.0 µg/ml) was inactive.
Turning to `C=CC(C)(C)[C@@]1(CCNC)C(=O)Nc2cc(Br)ccc21`, the outcome in the data set with Dendritic cell [1] (dose 10.0 µg/ml) and in the data set on Dendritic cell [2] (dose 10.0 µg/ml) was inactive.
`CNCCc1cn(CC=C(C)C)c2cc(Br)ccc12.O=C(O)C(F)(F)F`: the Activity in the data set on Dendritic cell [1] (dose 10 µg/ml) was 45%; in the data set on Dendritic cell [3] it was “Non-Toxic”. Besides, in the data set on Dendritic cell [4], the IC50 came to 2900 nM.
For `C=CC(C)(C)[C@@]12CCN(C)[C@@H]1N(C(O)C(O)C(C)(C)O)c1cc(Br)ccc12` (some centres not stated), the outcome with Dendritic cell [1] (dose 10.0 µg/ml) and in the data set with Dendritic cell [2] (dose 10.0 µg/ml) was inactive.
`O=C(O)C(F)(F)F.O=Cc1c[nH]c2cc(Br)ccc12`: the Activity is recorded as 45% in the data set with Dendritic cell [1] (dose 10 µg/ml) and “Non-Toxic” in the data set with Dendritic cell [3].
With `CO[C@H](c1[nH]c2cc(Br)ccc2c1CCN(C)C)[C@@H](O)C(C)(C)O`, the figures for the Activity with Dendritic cell [1] (dose 10 µg/ml) and in the data set on Dendritic cell [3] were 45% and “Non-Toxic”, respectively.
On to `CC1=C[C@H]2[C@@H]([C@@H](c3[nH]c4cc(Br)ccc4c3CCN(C)C)[C@]34CC[N+](C)(C)[C@]23Nc2cc(Br)ccc24)C(C)(C)C1` (relative stereo), for which the Activity in the data set with Dendritic cell [2] (dose 10 µg/ml) came to 19%.
`C=CC(C)(C)[C@@]12CCN(C)[C@@H]1N(C(OC)C(O)C(C)(C)O)c1cc(Br)ccc12` (some centres not stated): the outcome with Dendritic cell [1] (dose 10.0 µg/ml) and in the data set with Dendritic cell [2] (dose 10.0 µg/ml) was inactive.
Take `C=CC(C)(C)[C@@]12CCN(C)[C@@H]1N(C)c1cc(Br)ccc12`: the outcome with Dendritic cell [1] (dose 10.0 µg/ml) and in the data set with Dendritic cell [2] (dose 10.0 µg/ml) was inactive.
For the compound `C=CC(C)(C)[C@@]12CCN[C@@H]1Nc1cc(Br)ccc12`, the result with Dendritic cell [1] (dose 10.0 µg/ml) and in the data set with Dendritic cell [2] (dose 10.0 µg/ml) was inactive.
As for `C=CC(C)(C)[C@@]12CCN(C)[C@@H]1N(CC=C(C)C)c1cc(Br)ccc12`, the result in the data set on Dendritic cell [1] (dose 10.0 µg/ml) and in the data set with Dendritic cell [2] (dose 10.0 µg/ml) was inactive.
`CC(C)=CC[C@@]12CCN(C)[C@@H]1N(C(O)C(O)C(C)(C)O)c1cc(Br)ccc12` (some centres not stated): the result in the data set on Dendritic cell [1] (dose 10.0 µg/ml) and in the data set with Dendritic cell [2] (dose 10.0 µg/ml) was inactive.
Turning to `CC(C)C(=O)c1c(CCN(C)C)c2ccc(Br)cc2[nH]c1=O`, the Activity is 45% with Dendritic cell [1] (dose 10 µg/ml) and “Non-Toxic” with Dendritic cell [3].
For the compound `CC(C)=CC[C@@]12CCN(C)[C@@H]1N(CC(O)C(C)(C)O)c1cc(Br)ccc12` (some centres not stated), the result in the data set with Dendritic cell [1] (dose 10.0 µg/ml) and in the data set with Dendritic cell [2] (dose 10.0 µg/ml) was inactive.
In the case of `C=CC(C)(C)[C@@]12CCN(C)C1=Nc1cc(Br)ccc12`, the result in the data set on Dendritic cell [1] (dose 10.0 µg/ml) and in the data set on Dendritic cell [2] (dose 10.0 µg/ml) was inactive.
On to `CN(C)CCc1c[nH]c2cc(Br)ccc12.O=C(O)C(F)(F)F`, for which the Activity in the data set with Dendritic cell [1] (dose 10 µg/ml) was 45%; in the data set with Dendritic cell [3], “Non-Toxic”.
Regarding `CC(C)=CC[C@@]12CCN(C)[C@@H]1Nc1cc(Br)ccc12`, the result in the data set on Dendritic cell [1] (dose 10.0 µg/ml) and in the data set on Dendritic cell [2] (dose 10.0 µg/ml) was inactive.
For the compound `C/C(=C\C(=O)NCCc1c[nH]cn1)CCCC(C)(C)O`, in the data set on Dendritic cell [2] (dose 10 µg/ml), the Activity was 19%.
